# Patent US20240109972A1, “ANTIBODY AND TAXANE COMBINATION THERAPY” (Genmab A/S, priority 2020, published 2024)
# Tested on: solid malignant tumors
# Assay: GEN1046 Phase I dose escalation (NCT03917381), response by RECIST v1.1
# Assay type: in vivo, human
# Excerpt: The resistance to, failure to respond to and/or relapse from treatment with a binding agent of the invention and/or other therapeutic agent(s) may be determined according to the Response Evaluation Criteria In Solid Tumors; version 1.1 (RECIST Criteria v1.1).
# The “best overall response” is the best response recorded from the start of the treatment until disease progression/recurrence (the smallest measurements recorded since the treatment started will be used as the reference for PD). Subjects with CR or PR are considered to be objective response. Subjects with CR, PR or SD are considered to be in disease control. Subjects with NE are counted as non-responders. […]
# Clinical trial on GCT1046-01 (ClinicalTrials.gov Identifier: NCT03917381) was designed as a two-part trial, including an ongoing dose escalation part and a planned expansion part.
# The trial consists of 2 parts; a First-in-Human (FIH) dose escalation (Phase I) and an expansion (Phase 11a).
# For dose escalation, subject was required to be a man or […] and was required to have measurable disease according to RECIST 1.1.
# [1] = six patients with NSCLC, prior checkpoint immunotherapy
substance,measurement,setting,value
"GEN1046: PD-L1×4-1BB bispecific antibody: PD-L1-547-FEAL combined with CD137-009-HC7LC2-FEAR (SEQ ID NOs: 1, 5, 21, 19; 8, 12, 22, 20)","Confirmed PD (Progressive Disease), patients","800 mg (N 9), Oct. 12, 2020",2
same,"Confirmed PR (Partial Response), patients","800 mg (N 9), Oct. 12, 2020",0
same,"Confirmed SD (Stable Disease), % of patients","800 mg (N 9), Oct. 12, 2020",55.6%
same,"Confirmed SD (Stable Disease), patients","800 mg (N 9), Oct. 12, 2020",5
same,"Disease Control (PR + PR + SD) Rate, %","800 mg (N 9), Oct. 12, 2020",55.6%
same,"Disease Control (PR + PR + SD) Rate, patients","800 mg (N 9), Oct. 12, 2020",5
same,"NE (Not Evaluable), % of patients","800 mg (N 9), Oct. 12, 2020",22.2%
same,"NE (Not Evaluable), patients","800 mg (N 9), Oct. 12, 2020",2
same,"Objective Response (CR + PR) Rate, patients","800 mg (N 9), Oct. 12, 2020",0
same,"PD (Progressive Disease), % of patients","800 mg (N 9), Oct. 12, 2020",22.2%
same,"PD (Progressive Disease), patients","800 mg (N 9), Oct. 12, 2020",2
same,"PR (Partial Response), patients","800 mg (N 9), Oct. 12, 2020",0
same,"CR (Complete Response), patients","1200 mg (N 4), Oct. 12, 2020",0
same,"Confirmed CR (Complete Response), patients","1200 mg (N 4), Oct. 12, 2020",0
same,"Confirmed Disease Control (PR + PR + SD) Rate, %","1200 mg (N 4), Oct. 12, 2020",75.0%
same,"Confirmed Disease Control (PR + PR + SD) Rate, patients","1200 mg (N 4), Oct. 12, 2020",3
same,"Confirmed NE (Not Evaluable), patients","1200 mg (N 4), Oct. 12, 2020",0
same,"Confirmed Objective Response (CR + PR) Rate, patients","1200 mg (N 4), Oct. 12, 2020",0
same,"Confirmed PD (Progressive Disease), % of patients","1200 mg (N 4), Oct. 12, 2020",25.0%
same,"Confirmed PD (Progressive Disease), patients","1200 mg (N 4), Oct. 12, 2020",1
same,"Confirmed PR (Partial Response), patients","1200 mg (N 4), Oct. 12, 2020",0
same,"Confirmed SD (Stable Disease), % of patients","1200 mg (N 4), Oct. 12, 2020",75.0%
same,"Confirmed SD (Stable Disease), patients","1200 mg (N 4), Oct. 12, 2020",3
same,"Disease Control (PR + PR + SD) Rate, %","1200 mg (N 4), Oct. 12, 2020",75.0%
same,"Disease Control (PR + PR + SD) Rate, patients","1200 mg (N 4), Oct. 12, 2020",3
same,"NE (Not Evaluable), patients","1200 mg (N 4), Oct. 12, 2020",0
same,"Objective Response (CR + PR) Rate, patients","1200 mg (N 4), Oct. 12, 2020",0
same,"PD (Progressive Disease), % of patients","1200 mg (N 4), Oct. 12, 2020",25.0%
same,"PD (Progressive Disease), patients","1200 mg (N 4), Oct. 12, 2020",1
same,"PR (Partial Response), patients","1200 mg (N 4), Oct. 12, 2020",0
same,"Partial responses, patients",ICI pre-treated NSCLC,2
same,"CR (Complete Response), patients","Total (N 61), Oct. 12, 2020",0
same,"Confirmed CR (Complete Response), patients","Total (N 61), Oct. 12, 2020",0
same,"Confirmed Disease Control (PR + PR + SD) Rate, %","Total (N 61), Oct. 12, 2020",(65.6%)
same,"Confirmed Disease Control (PR + PR + SD) Rate, patients","Total (N 61), Oct. 12, 2020",40
same,"Confirmed NE (Not Evaluable), % of patients","Total (N 61), Oct. 12, 2020",(11.5%)
same,"Confirmed NE (Not Evaluable), patients","Total (N 61), Oct. 12, 2020",7
same,"Confirmed Objective Response (CR + PR) Rate, %","Total (N 61), Oct. 12, 2020",(3.3%)
same,"Confirmed Objective Response (CR + PR) Rate, patients","Total (N 61), Oct. 12, 2020",2
same,"Confirmed PD (Progressive Disease), % of patients","Total (N 61), Oct. 12, 2020",(23.0%)
same,"Confirmed PD (Progressive Disease), patients","Total (N 61), Oct. 12, 2020",14
same,"Confirmed PR (Partial Response), % of patients","Total (N 61), Oct. 12, 2020",(3.3%)
same,"Confirmed PR (Partial Response), patients","Total (N 61), Oct. 12, 2020",2
same,"Confirmed SD (Stable Disease), % of patients","Total (N 61), Oct. 12, 2020",(62.3%)
same,"Confirmed SD (Stable Disease), patients","Total (N 61), Oct. 12, 2020",38
same,"Disease Control (PR + PR + SD) Rate, patients","Total (N 61), Oct. 12, 2020",40
same,"NE (Not Evaluable), % of patients","Total (N 61), Oct. 12, 2020",(11.5%)
same,"NE (Not Evaluable), patients","Total (N 61), Oct. 12, 2020",7
same,"Objective Response (CR + PR) Rate, %","Total (N 61), Oct. 12, 2020",(6.6%)
same,"Objective Response (CR + PR) Rate, patients","Total (N 61), Oct. 12, 2020",4
same,"PD (Progressive Disease), % of patients","Total (N 61), Oct. 12, 2020",(23.0%)
same,"PD (Progressive Disease), patients","Total (N 61), Oct. 12, 2020",14
same,"PR (Partial Response), % of patients","Total (N 61), Oct. 12, 2020",(6.6%)
same,"BOR Complete Response, (percent)","Total (n = 30), 3 Feb. 2020",(0)
same,"BOR Complete Response, patients","Total (n = 30), 3 Feb. 2020",0
same,"BOR Partial Response, (percent)","Total (n = 30), 3 Feb. 2020",(10)
same,"BOR Partial Response, patients","Total (n = 30), 3 Feb. 2020",3
same,"BOR Progressive Disease, (percent)","Total (n = 30), 3 Feb. 2020",(26.6)
same,"BOR Progressive Disease, patients","Total (n = 30), 3 Feb. 2020",8
same,"BOR Stable Disease, (percent)","Total (n = 30), 3 Feb. 2020",(63.3)
same,"BOR Stable Disease, patients","Total (n = 30), 3 Feb. 2020",19
same,"Partial responses, patients",ovarian cancer,1
same,Patients who maintained stable disease,[1],two
same,Patients with progressive disease,[1],two
same,Patients with unconfirmed PR,[1],two
same,"Partial responses, patients",triple negative breast cancer,1
